# Measured values published in patent publication US5521315A, “Olefin substituted long chain compounds” (priority 1993, dated 1996).
# Legend:
# [1] = test system: mast cell degranulation; test: Serotonin release assay (inhibition of mast cell degranulation); type: cell-based; settings: for RELEASE-SPONT: average corrected for spontaneous release; for AVERAGE % RELEASE: average of duplicates; for % INHIBITION (serotonin release): Table 3
# Excerpt: A serotonin release assay is utilized to study the utility of the inventive compounds for treatment of asthma and allergy. […] This assay measures mast cell degranulation, which is an early phase reaction to allergen challenge. Mast cells grown in tissue culture are first loaded with ^3 H serotonin, which is incorporated into the granules in the cells. The mast cells are sensitized with antigen specific monoclonal IgE, and then triggered to degranulate with the specific antigen (dinitorphenolbound to BSA (DNP)). When the cells degranulate, ^3 H Serotonin is released into the medium, and can be measured directly. The ability of the inventive compounds to inhibit the degranulation response is determined by the decrease in ^3 H Serotonin released in the presence of drug and is represented as % INHIBITION.
# Specifically, the serotonin release assay seeds 2×10^5 cells in 0.5 ml medium in duplicate for spontaneous release, IgE+DNP, IgE+DNP+EtOH (vehicle control), and inventive compounds. […] The cells are incubated for 18 hours at 37° C. in 5% CO2, washed twice with 0.5 ml Isotonic Buffer (25 mM disodium PIPES pH 7.1,100 mM NaCl, 5 mM KCl, 5 mM glucose, 0.4 mM MgCl2, 1mM CaCl2, 0.1% BSA), and sterile filtered. 250 μl Isotonic Buffer is added per well and the plates are equilibrated in an incubator for about 10 min. Drug is added and cells are activated with 40 ng/ml DNP-BSA (1 mg/ml Diluted 1:200 in Isotonic Buffer) for 45 minutes using 2 μl/250 μl. Spontaneous release is determined in incubated cells with 250 μl Isotonic Buffer for 45 minutes and the reaction is stopped by removing supernatant and centrifuging at ~4000 rpm in microfuge for 15 seconds to remove any detached cells. Released radiolableled serotonin is counted. To determine amount of ^3 H-serotonin incorporated into the cells, (a) remove Isotonic Buffer and lyse cells by adding 250 μl 1% Triton-X100 in PBS, (b) add to 5 ml scintillation fluid, (c) wash 2× with Triton/PBS, and (d) add washes to scintillation tube. Percent serotonin release is calculated by dividing the amount of released serotonin by the sum of incorporated plus released serotonin and correcting for spontaneous released serotonin. Compound inhibition is calculated by dividing the percent serotonin release in the presence of a compound by the percent serotonin release in the absence of the compound.
# This assay is described above and provides an in vitro model for an allergy and asthma therapeutic product.
# [2] = test system: CMV promoter activity in transformed (adenovirus) cells; test: CMV promoter assay (gene transcription and translation; cytotoxicity in transformed cells); type: cell-based; settings: for cytotoxicity ranking in CMV promoter assay: Table 2 / FIG. 18
# Excerpt: (§1) FIG. 18 illustrates data regarding proliferative activity of various inventive compounds for inducting CMV promoter activity. The CMV promoter assay measures gene transcription and translation activity wherein any active compounds will have cytotoxic activity to inhibit cellular protein synthesis machinery in transformed (adenovirus) cells.
# as §1, with “This example” for “FIG. 18”
Compound,activity in serotonin release assay ([1]; 50 μM),"RELEASE-SPONT ([1]; 50 μM, Table 4) [%]","AVERAGE % RELEASE ([1]; 50 μM, Table 4) [%]","inhibition at 50 µM ([1]; Mast cell, 50 μM, Table 4) [%]",IC50 [2] [µM],cytotoxicity ranking in CMV promoter assay [2],"RELEASE-SPONT ([1]; 25 uM, Table 4) [%]","AVERAGE % RELEASE ([1]; 25 uM, Table 4) [%]","inhibition at 25 µM ([1]; Mast cell, 25 uM, Table 4) [%]",% INHIBITION (serotonin release) ([1]; 50 μM)
"CC/C=C\CCCCCn1c(=O)c(C)cn(C)c1=O [CT1916, 3-(6-cis-nonenyl)-1-methylthymine]",appears to decrease the activity,6.02,22.58,24.9,250,–,–,–,–,–
"C=CCCCCn1c(=O)c2[nH]cnc2n(C)c1=O [CT1438, 1-(5-hexenyl)-3-methylxanthine]",–,–,–,–,> 500,–,–,–,–,–
"C=CCCCCCCCCCn1c(=O)c(C)cn(C)c1=O [CT1931, 3-(10-undecenyl)-1-methylthymine]",–,2.23,18.78,72.2,–,–,–,–,–,–
"CC/C=C\CCCCCn1c(=O)ccn(C)c1=O [CT1814, 3-(6-cis-nonenyl)1-methyluracil]",appears to decrease the activity,5.94,22.50,25.9,100,–,–,–,–,–
"CC(C)=CCCC(C)=CCCC(C)=CCn1c(=O)c2c(ncn2C)n(C)c1=O [CT2544, 1-(Farnesyl)-3,7-dimethylxanthine]",–,-1.11,15.44,114,20,the most cytotoxic compound tested,–,–,–,–
"C=CCCCCCCCN1C(=O)CCCC1=O [CT1604, N-(8-nonenyl)glutarimide]",appear to be quite potent,0.41,16.96,94.9,100,–,4.85,21.41,39.5,–
"C=CCCCCCCCCCCn1c(=O)c2c(ncn2C)n(C)c1=O [CT2516, 1-(11-dodecenyl)-3,7-dimethylxanthine]",–,5.57,22.12,30.6,–,–,–,–,–,–
"C=CCn1c(=O)c2c(ncn2C)n(C)c1=O [CT1531, 1-(2-propenyl)-3,7-dimethylxanthine]",–,6.99,23.55,12.8,50,–,–,–,–,–
"CC(C)=CCC/C(C)=C/Cn1c(=O)c2c(ncn2C)n(C)c1=O [CT2545, 1-(Geranyl)-3,7-dimethylxanthine]",–,2.49,19.05,68.9,75,–,–,–,–,–
"C/C=C/CCCn1c(=O)c2c(ncn2C)n(C)c1=O [CT1581, 1-(trans-4-Hexenyl)-3,7-dimethylxanthine]",–,4.31,20.87,46.3,> 500,–,–,–,–,–
"C=CCCCCCCCn1c(=O)c2[nH]cnc2n(C)c1=O [CT1405, 1-(8-nonenyl)-3-methylxanthine]",–,5.13,21.69,36,100,–,–,–,–,–
"CCCCCCCCC=CCCCCCCCCn1c(=O)c2c(ncn2C)n(C)c1=O [CT2539, 1-(9-octadecenyl)-3,7-dimethylxanthine]",–,3.13,19.69,61,> 100,–,–,–,–,–
"CC/C=C\CCCCCN1C(=O)CCCC1=O [CT1607, N-(6-cis-nonenyl)glutarimide]",appears to decrease the activity,3.82,20.38,52.3,–,–,–,–,–,–
"C=CCCCCCCCCCN1C(=O)CCCC1=O [CT1610, N-(10-undecenyl)glutarimide]",–,2.27,18.83,71.7,–,–,–,–,–,–
"CC/C=C\CCCCCCn1c(=O)c2c(ncn2C)n(C)c1=O [CT2560, 1-(7-cis-decenyl)-3,7-dimethylxanthine]",appears to increase the activity,2.96,19.51,63.1,–,–,–,–,–,–
"CC(C)=CCC[C@H](C)CCn1c(=O)c2c(ncn2C)n(C)c1=O [CT1596S, 1-(3-(S)-methyl-7-methyloct-6-enyl)-3,7-dimethylxanthine]",–,3.15,19.71,60.7,40,the most cytotoxic compound tested,–,–,–,–

Compound,activity in serotonin release assay ([1]; 50 μM),"RELEASE-SPONT ([1]; 50 μM, Table 4) [%]","AVERAGE % RELEASE ([1]; 50 μM, Table 4) [%]","inhibition at 50 µM ([1]; Mast cell, 50 μM, Table 4) [%]",IC50 [2] [µM],cytotoxicity ranking in CMV promoter assay [2],"RELEASE-SPONT ([1]; 25 uM, Table 4) [%]","AVERAGE % RELEASE ([1]; 25 uM, Table 4) [%]","inhibition at 25 µM ([1]; Mast cell, 25 uM, Table 4) [%]",% INHIBITION (serotonin release) ([1]; 50 μM)
"C=CC(O)CCCCCn1c(=O)c2c(ncn2C)n(C)c1=O (centres unmarked) [CT2508, 1-(6-hydroxy-7-octenyl)-3,7-dimethylxanthine]",–,2.89,19.44,64,> 500,–,–,–,–,–
"C=CCCCn1c(=O)c2c(ncn2C)n(C)c1=O [CT1575, 1-(4-pentenyl)-3,7-dimethylxanthine]",the two most potent compounds in this group,4.33,20.89,46,> 500,–,–,–,–,–
"C=CCCCCCCCn1c(=O)ccn(C)c1=O [CT1817, 3-(8-nonenyl)1-methyluracil]",–,3.57,20.12,55.5,250,–,–,–,–,–
"C=CCCCCCCCCCN1C(=O)CCN(C)C1=O [CT1819, 3-(10-undecenyl)-1-methyldihydrouracil]",just not having much of an effect at 50 μM,9.42,25.98,-17.5,–,–,–,–,–,no inhibi-
"C=CCCCCCCCn1c(=O)c(C)cn(C)c1=O [CT1917, 3-(8-nonenyl)-1-methylthymine]",–,3.75,20.31,53.2,75,–,–,–,–,–
"C=CCCCCCCCn1c(=O)c2c(ncn2C)n(C)c1=O [CT1550, 1-(8-nonenyl)-3,7-dimethylxanthine]",–,6.94,23.50,13.4,75,–,–,–,–,–
"C=CCCCCN1C(=O)CCN(C)C1=O [CT1812, 3-(5-hexenyl)-1-methyldihydrouracil]",just not having much of an effect at 50 μM,8.27,24.83,-3.14,> 100,–,–,–,–,no inhibi-
"CC(C)=CCC[C@@H](C)CCn1c(=O)c2c(ncn2C)n(C)c1=O [CT1596R, 1-(3-(R)-methyl-7-methyloct-6-enyl)-3,7-dimethylxanthine]",–,6.59,23.14,17.9,> 500,–,–,–,–,–
"C=CCCCCn1c(=O)n(C)c(=O)c2ccccc21 [CT1203, 1-(5-hexenyl)-3-methylbenzoyleneurea]",appear to be quite potent,-1.12,15.43,114,–,–,–,–,–,–
"C=CCCCCN1C(=O)c2ccccc2C1=O [CT1101, N(5-hexenyl)phthalimide]",–,2.05,18.60,74.5,250,–,–,–,–,–
"C=CCCn1c(=O)c2c(ncn2C)n(C)c1=O [CT2503, 1-(3-butenyl)-3,7-dimethylxanthine]",–,4.87,21.43,39.2,> 500,–,–,–,–,–
"C=CCCCCn1c(=O)c(C)cn(C)c1=O [CT1905, 3-(5-hexenyl)-1-methylthymine]",–,4.94,21.49,38.5,> 500,–,–,–,–,–
"C=CCCCCCCCCCn1c(=O)ccn(C)c1=O [CT1823, 3-(10-undecenyl)1-methyluracil]",–,4.72,21.28,41.1,–,–,–,–,–,–
"C=CCCCCCCCN1C(=O)c2ccccc2C1=O [CT1102, N(8-nonenyl)phthalimide]",–,2.32,18.88,71.1,175,–,–,–,–,–
"C=CCCCCCCCCCCCn1c(=O)c2c(ncn2C)n(C)c1=O [CT2555, 1-(12-tridecenyl)-3,7-dimethylxanthine]",–,5.72,21.68,36.1,–,–,–,–,–,–
